Where “and” joins values, the source holds several entries; their conditions need not be identical. Equal entries are not always repeated. Where two headings read alike, the source gives them in different places.
Columns and labels:
rat adenine binding GPCR = target: T1, rat adenine binding GPCR (Rattus norvegicus, UniProt Q7TN49); test: FLIPR Ca2+ transient assay, agonism, HEK293/Gq chimera cells transiently transfected with rat adenine binding GPCR/pcDNA3; assay type: cell-based; set-up: The full length reading frame was inserted into the mammalian expression vector pcDNA3; expressed in transfected cells; host or cells: HEK293 cells stably transfected with pLEC/Gqi or pLEC/Gqo; details: for calcium transients elicited: HEK293/Gaqo cells, 3.3 μM; for agonistic effects on Ca2+ transients: concentrations ranging from 30 μM to 30 pM
T1 sequence (Q7TN49 1-304): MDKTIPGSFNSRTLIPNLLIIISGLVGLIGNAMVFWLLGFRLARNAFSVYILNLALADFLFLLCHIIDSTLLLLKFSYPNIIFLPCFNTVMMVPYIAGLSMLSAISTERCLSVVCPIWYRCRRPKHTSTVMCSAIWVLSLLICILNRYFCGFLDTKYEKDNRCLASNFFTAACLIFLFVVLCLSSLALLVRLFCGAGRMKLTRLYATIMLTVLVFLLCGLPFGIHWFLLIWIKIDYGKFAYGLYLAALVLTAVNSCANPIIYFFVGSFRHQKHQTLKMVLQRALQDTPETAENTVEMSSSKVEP
Description: This assay is based around an instrument called a FLuorescence Imaging Plate Reader ((FLIPR®), Molecular Devices Corporation). In its most common configuration, it excites and measures fluorescence emitted by fluorescein-based dyes. It uses an argon-ion laser to produce high power excitation at 488 nm of a fluorophore, a system of optics to rapidly scan the over the bottom of a 96-/384-well plate and a sensitive, cooled CCD camera to capture the emitted fluorescence. It also contains a 96-/384-well pipetting head allowing the instrument to deliver solutions of test agents into the wells of a 96-/384-well plate. The FLIPR assay is designed to measure fluorescence signals from populations of cells before, during and after addition of compounds, in real time, from all 96-/384-wells simultaneously. […] As described below, calcium transients in cells transfected with adenine binding GPCR were measured using the FLIPR assay in order to measure activation of the receptors by various substrates in order to determine the natural ligand of the receptor.
The full length reading frame was inserted into the mammalian expression vector pcDNA3 (Invitrogen, Carlsbad, Calif., U.S.A.) and the resulting expression construct was transiently transfected with the FuGENE 6 reagent (Roche Molecular Biochemicals, Mannheim, Germany) into HEK293 cells stably transfected (E. Bender, unpublished) with pLEC/Gqi or pLEC/Gqo (Molecular Devices, Sunnyvale, Calif., U.S.A.). The cells were loaded with Fluo-4 (Molecular Probes, Eugene, Oreg., U.S.A.) according to the recommendations of the supplier. […]
Using the FLIPR assay as above, calcium transients were measured in both sets of cells with the transients attributable to the novel GPCR measured as the difference between the two transients. Results are illustrated in FIG. 4. […]

wild type CHO cells = test: [3H]adenine competition binding on wild type CHO membranes; details: 15 nM [3H]adenine
Experimental: The membranes were prepared as total particulate fractions. […] The culturing medium was removed and the cells were washed twice with ice cold phosphate buffered saline (PBS without Ca^2+ and Mg^2+), scraped from the plates in 50 mM Tris-HCl buffer, pH 7.4, and collected by centrifugation (10 minutes at 16,000 RPM at 4° C.). The cell pellet was re-suspended in hypotonic 5 mM Tris-HCl buffer, pH 7.4, and homogenized with an Ultra Turrax homogenizer (Janker Kunkel, Germany). The homogenate was centrifuged at 18,000 RPM for 20 minutes at 4° C. The final pellet was re-suspended in 50 mM Tris-HCl buffer, pH 7.4 and stored in aliquots at −70° C. A protein determination was performed using the Bradford protein assay (Biorad, Germany) using bovine serum albumin (BSA) as standard.
(§1) Membranes were thawed on ice and diluted in 50 mM HEPES buffer, pH 7.4 supplemented with 10 mM MgCl2 and 1 mM EGTA. […] Both assays were carried out in a final volume of 500 μl, using 18 μg of membrane protein for the transfected CHO cells and 30 μg of membrane protein for the wild type CHO cells for the saturation binding. For competition binding experiments, 15 and 50 μg of membrane protein was used for the transfected and wild type cells, respectively. The reaction was terminated by rapid filtration through Whatman GF/B filters using a Brandel multi-channel cell harvester (96 wells). The filters were washed three times with 3 ml ice cold 50 mM HEPES buffer, pH 7.4, transferred to liquid scintillation vials and 3 ml of scintillation fluid (Ultima Gold MV, Packard, Netherlands) was added. Samples were counted in a β-scintillation counter after at least 6 hours to permit the glass fiber filters to become uniformly translucent.

[1] = target: T2, adenine binding rat receptor (Rattus norvegicus, UniProt Q7TN49); test: [3H]adenine competition binding on CHO membranes transiently transfected; details: transfected cells, 15 nM [3H]adenine
T2 construct: expressed in transfected cells; host or cells: CHO cells, transient, lipofectamine PLUS
T2 sequence (Q7TN49 1-304): T1 sequence (Q7TN49 1-304)
Experimental: The membranes were prepared as total particulate fractions. The cell lines were cultured to […] on 145 mm petri dishes and treated with 5 mM sodium butyrate, 24 hours before collection. The culturing medium was removed and the cells were washed twice with ice cold phosphate buffered saline (PBS without Ca^2+ and Mg^2+), scraped from the plates in 50 mM Tris-HCl buffer, pH 7.4, and collected by centrifugation (10 minutes at 16,000 RPM at 4° C.). The cell pellet was re-suspended in hypotonic 5 mM Tris-HCl buffer, pH 7.4, and homogenized with an Ultra Turrax homogenizer (Janker Kunkel, Germany). The homogenate was centrifuged at 18,000 RPM for 20 minutes at 4° C. The final pellet was re-suspended in 50 mM Tris-HCl buffer, pH 7.4 and stored in aliquots at −70° C. A protein determination was performed using the Bradford protein assay (Biorad, Germany) using bovine serum albumin (BSA) as standard.
as §1, with “A) Methods—[3H]Adenine binding experiments were performed to characterize wild type cell lines before transfection as well as transiently and permanently transfected cell lines. Membranes” for “Membranes”

adenine binding GPCR = target: T3, adenine binding GPCR (Rattus norvegicus, UniProt Q7TN49); test: FLIPR Ca2+ transient assay, antagonism of 30 nM adenine challenge; assay type: cell-based; details: 15 minutes incubation with compound (30 μM to 30 pM), then challenge with 30 nM adenine
T3 construct: The full length reading frame was inserted into the mammalian expression vector pcDNA3; expressed in transfected cells; host or cells: HEK293 cells stably transfected with pLEC/Gqi or pLEC/Gqo
T3 sequence (Q7TN49 1-304): T1 sequence (Q7TN49 1-304)
Description: The full length reading frame was inserted into the mammalian expression vector pcDNA3 (Invitrogen, Carlsbad, Calif., U.S.A.) and the resulting expression construct was transiently transfected with the FuGENE 6 reagent (Roche Molecular Biochemicals, Mannheim, Germany) into HEK293 cells stably transfected (E. Bender, unpublished) with pLEC/Gqi or pLEC/Gqo (Molecular Devices, Sunnyvale, Calif., U.S.A.). The cells were loaded with Fluo-4 (Molecular Probes, Eugene, Oreg., U.S.A.) according to the recommendations of the supplier.
After a 15 minutes incubation at room temperature, the same cells were challenged with 30 nM adenine, to detect antagonistic properties of molecules added in the first round of superfusion.

[2] = target: T2, adenine binding rat receptor; test: [35S]GTPγS binding on CHO membranes transiently transfected; assay type: biochemical; details: transiently transfected cells; for % stim.: increase above basal; for EC50: read-out: pEC50 (converted)
Experimental: a) Methods—Determination of [^35S ]GTPγS binding to the G-proteins was carried out according to a modified procedure of Lazareno (Methods Mol. Biol., 83:107-116, 1997). These experiments were performed for a first functional evaluation of the receptor on the level of a membrane preparation.
The assay mixture contained 10 and 35 μg of membrane protein for the transfected and wild type CHO cells, respectively.
For testing agonistic activity, 175 μl of diluted membranes was pre-incubated in the buffer described above together with 25 μl of buffer and 25 μl of varying concentrations of the compound in a total volume of 225 μl. After a 20 minute pre-incubation period at 30° C., 25 μl of [^35S]GTPγS was added to a final concentration of 0.25 nM and the assay mixtures were further incubated for 20 minutes at 30° C. Bound and free [^35S]GTPγS were separated by rapid filtration over an UniFilter™-96, GF/B™ under reduced pressure using Filtermate 196 filtration (Packard Company (Netherlands). The amount of bound radioactivity on the filter unit was determined after drying of the filters and scintillant addition (Microscint-O; Packard Company) by liquid scintillation counting.
Basal [^35S]GTPγS binding was measured in absence of compounds. Stimulation by agonist was calculated as the percentage increase above basal levels. The sigmoid agonist concentration-response curves were analyzed by non-linear regression using the GraphPad Prism program. The different concentration points were run in duplicates and the reported data were retrieved from independent experiments.

Row | Molecule | pIC50 (wild type CHO cells; mean of n experiments) | pIC50 (wild type CHO cells; single experiments) | IC50 ([1]; mean of n experiments) [µM] | IC50 ([1]; single experiments) | Ki ([1]; single experiments) | antagonistic effect (adenine binding GPCR) | agonistic effects on Ca2+ transients (rat adenine binding GPCR) | other results
1 | Nc1ncnc2c1ncn2[C@@H]1O[C@H](CO)[C@@H](O)[C@H]1O [Adenosine, adenosine] | <4 | <4 | ~100 | > 100 µM and 72.4 µM | 44.6 µM | did not elicit antagonistic effects | – | agonism of nucleoside and nucleotide derivatives of adenine (rat adenine binding GPCR; at high concentrations (>3.3 μM)): weak partial agonism
2 | O=c1ccn([C@@H]2O[C@H](CO)[C@@H](O)[C@H]2O)c(=O)[nH]1 [Uridine, uridine] | <4 | <4 | > 100 | > 100 µM | – | did not elicit antagonistic effects | No further agonistic effects | calcium transients elicited (rat adenine binding GPCR): could not be elicited
3 | COc1cccc2c1C(=O)c1c(O)c3c(c(O)c1C2=O)C[C@@](O)(C(=O)CO)C[C@@H]3O[C@H]1C[C@H](N)[C@H](O)[C@H](C)O1 [Adrianamycin] | <4 | <4 | – | – | 27.8 µM | – | – | Ki ([1]; mean of n experiments): 27.9 µM; pIC50 ([1]; mean of n experiments): 4.35; pIC50 ([1]; single experiments): 4.35
4 | O=c1ccn([C@@H]2O[C@H](COP(=O)(O)OP(=O)(O)OP(=O)(O)O)[C@@H](O)[C@H]2O)c(=O)[nH]1 [UTP] | – | – | – | – | – | did not elicit antagonistic effects | No further agonistic effects | –
5 | c1ccc(CNc2ncnc3nc[nH]c23)cc1 [6-Benzylaminopurine] | <4 | <4 | 93.3 | 87.1 µM | 61.4 µM and 54.1 µM | – | – | stimulation normalized to maximum adenine response ([2]; adenine stimulation of same experiment = 100%): (11% ref); % stim. ([2]; mean of n experiments): 12%; % stim. ([2]; single experiments): 12%; EC50 ([2]; mean of n experiments): > 100 µM; EC50 ([2]; single experiments): > 100 µM; Ki ([1]; mean of n experiments): 58.3 µM
6 | Cc1ccc(C(=O)Nc2ccc(S(=O)(=O)O)c3cc(S(=O)(=O)O)cc(S(=O)(=O)O)c23)cc1NC(=O)c1cccc(NC(=O)Nc2cccc(C(=O)Nc3cc(C(=O)Nc4ccc(S(=O)(=O)O)c5cc(S(=O)(=O)O)cc(S(=O)(=O)O)c45)ccc3C)c2)c1 [suramin] | – | – | – | – | – | did not elicit antagonistic effects | No further agonistic effects | –
7 | O=c1[nH]c(=O)c2[nH]cnc2[nH]1 [xanthine] | – | – | – | – | – | did not elicit antagonistic effects | No further agonistic effects | calcium transients elicited (rat adenine binding GPCR): could not be elicited
8 | COc1cccc2c1C(=O)c1c(O)c3c(c(O)c1C2=O)C[C@@](O)(C(C)=O)C[C@@H]3O[C@H]1C[C@H](N)[C@H](O)[C@H](C)O1 [Daunomycin] | <4 | <4 | 50.1 | 50.1 µM | 31 µM | – | – | Ki ([1]; mean of n experiments): 31.3 µM
9 | reactive blue | – | – | – | – | – | did not elicit antagonistic effects | No further agonistic effects | –
10 | O=c1ccn([C@@H]2O[C@H](COP(=O)(O)OP(=O)(O)O)[C@@H](O)[C@H]2O)c(=O)[nH]1 [UDP] | – | – | – | – | – | did not elicit antagonistic effects | No further agonistic effects | calcium transients elicited (rat adenine binding GPCR): could not be elicited
11 | Cn1c(=O)c2[nH]cnc2n(C)c1=O [theophylline] | – | – | – | – | – | did not elicit antagonistic effects | No further agonistic effects | –

— US20030157516A1, “G protein coupled receptor” (priority 2000, published 2003)
